Experimental data from patent publication US9452986B2, “6-heteroaryloxy- or 6-aryloxy-quinoline-2-carboxamides and method of use” (AbbVie Inc., priority 2014, dated 2016).

molecular target: recombinant human Nav1.7 (Homo sapiens (Human), UniProt Q15858); test: FRET-based membrane potential assay, recombinant human sodium channel Nav1.7; format: cell-based; details: FRET-Membrane Potential Nav1.7 IC50
In short: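 Channel activation used veratridine at its EC80, set by a dilution curve each experiment, together with Leiurus scorpion venom, added 3 min after compound. Membrane-potential ratio signals from FLIPR Tetra in HEPES-buffered HBSS were fitted to a four-parameter Hill equation for percent inhibition and IC50.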

Sequence of recombinant human Nav1.7 (Q15858 whole entry): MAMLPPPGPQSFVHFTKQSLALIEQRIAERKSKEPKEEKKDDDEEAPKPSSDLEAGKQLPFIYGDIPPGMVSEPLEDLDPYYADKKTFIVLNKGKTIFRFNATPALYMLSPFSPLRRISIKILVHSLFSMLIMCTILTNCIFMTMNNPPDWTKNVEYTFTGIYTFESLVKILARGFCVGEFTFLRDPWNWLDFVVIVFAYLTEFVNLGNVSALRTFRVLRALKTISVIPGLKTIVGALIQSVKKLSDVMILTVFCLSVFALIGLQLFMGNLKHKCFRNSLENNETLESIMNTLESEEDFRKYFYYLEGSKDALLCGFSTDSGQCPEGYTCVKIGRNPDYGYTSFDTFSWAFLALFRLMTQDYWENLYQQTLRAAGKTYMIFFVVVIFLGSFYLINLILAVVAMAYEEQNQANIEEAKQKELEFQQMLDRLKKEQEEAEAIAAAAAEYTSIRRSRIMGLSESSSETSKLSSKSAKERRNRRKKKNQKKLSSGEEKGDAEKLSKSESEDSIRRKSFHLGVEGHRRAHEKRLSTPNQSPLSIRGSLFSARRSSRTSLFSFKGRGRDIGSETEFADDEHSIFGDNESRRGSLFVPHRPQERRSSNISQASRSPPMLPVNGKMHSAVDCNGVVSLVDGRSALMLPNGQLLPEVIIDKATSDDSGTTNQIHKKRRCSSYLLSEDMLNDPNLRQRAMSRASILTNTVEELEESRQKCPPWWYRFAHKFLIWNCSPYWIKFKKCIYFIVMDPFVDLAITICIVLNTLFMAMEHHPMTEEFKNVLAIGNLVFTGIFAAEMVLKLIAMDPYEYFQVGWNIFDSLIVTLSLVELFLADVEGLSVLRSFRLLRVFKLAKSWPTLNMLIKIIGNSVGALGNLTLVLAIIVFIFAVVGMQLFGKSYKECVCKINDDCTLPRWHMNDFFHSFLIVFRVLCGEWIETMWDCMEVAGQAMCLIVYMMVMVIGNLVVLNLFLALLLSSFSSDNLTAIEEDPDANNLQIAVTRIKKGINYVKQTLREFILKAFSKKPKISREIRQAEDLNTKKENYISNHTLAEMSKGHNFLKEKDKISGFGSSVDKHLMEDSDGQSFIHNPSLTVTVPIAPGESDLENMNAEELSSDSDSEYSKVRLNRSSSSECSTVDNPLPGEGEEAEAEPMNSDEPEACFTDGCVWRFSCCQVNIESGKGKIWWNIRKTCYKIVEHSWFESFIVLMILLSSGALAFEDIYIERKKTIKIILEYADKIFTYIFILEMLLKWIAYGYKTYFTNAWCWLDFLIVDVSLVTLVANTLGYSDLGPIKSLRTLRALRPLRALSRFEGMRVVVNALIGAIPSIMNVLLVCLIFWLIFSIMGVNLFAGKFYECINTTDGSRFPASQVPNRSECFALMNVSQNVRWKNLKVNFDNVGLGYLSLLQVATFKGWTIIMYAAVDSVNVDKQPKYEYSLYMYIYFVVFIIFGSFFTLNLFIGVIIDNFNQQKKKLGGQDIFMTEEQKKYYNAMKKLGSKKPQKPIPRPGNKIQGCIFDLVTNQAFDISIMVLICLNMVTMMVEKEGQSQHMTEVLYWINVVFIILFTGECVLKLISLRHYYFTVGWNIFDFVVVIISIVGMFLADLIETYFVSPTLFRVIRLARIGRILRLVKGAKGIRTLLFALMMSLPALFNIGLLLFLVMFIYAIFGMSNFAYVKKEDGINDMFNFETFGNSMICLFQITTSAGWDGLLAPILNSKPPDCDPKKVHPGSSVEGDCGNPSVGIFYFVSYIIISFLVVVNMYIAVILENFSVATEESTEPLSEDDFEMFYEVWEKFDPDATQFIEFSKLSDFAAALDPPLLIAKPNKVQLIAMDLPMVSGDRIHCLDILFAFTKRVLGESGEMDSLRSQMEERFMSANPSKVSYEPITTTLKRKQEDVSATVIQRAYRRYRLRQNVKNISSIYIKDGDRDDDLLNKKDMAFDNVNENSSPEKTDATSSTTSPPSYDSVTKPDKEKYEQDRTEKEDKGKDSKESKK

SMILES | IC50 [µM]
O=C(N[C@H]1C[C@H](O)C1)c1ccc2cc(Oc3ccc(C(F)(F)F)cn3)ccc2n1 [Example 302, N-(trans-3-hydroxycyclobutyl)-6-{[5-(trifluoromethyl)pyridin-2-yl]oxy}quinoline-2-carboxamide] | 3.49

same assay, conditions: HEK293 cells stably expressing recombinant human Nav1.7; veratridine + scorpion venom depolarization; read-out: FRET-Membrane Potential Nav1.7 IC50

SMILES | IC50 [µM]
O=C(c1ccc2cc(Oc3ccc(C(F)(F)F)cn3)ccc2n1)N1CC[C@H](O)C1 [Example 283, [(3S)-3-hydroxypyrrolidin-1-yl](6-{[5-(trifluoromethyl)pyridin-2-yl]oxy}quinolin-2-yl)methanone] | 10.9
O=C(c1ccc2cc(Oc3ccc(C(F)(F)F)cn3)ccc2n1)N1CCCC(O)CC1 (centres unmarked) [Example 284, (4-hydroxyazepan-1-yl)(6-{[5-(trifluoromethyl)pyridin-2-yl]oxy}quinolin-2-yl)methanone] | 8.59
CC1(CN2CCN(C(=O)c3ccc4cc(Oc5ccc(C(F)(F)F)cn5)ccc4n3)CC2)COC1 [Example 286, {4-[(3-methyloxetan-3-yl)methyl]piperazin-1-yl}(6-{[5-(trifluoromethyl)pyridin-2-yl]oxy}quinolin-2-yl)methanone] | 11.4
CS(=O)(=O)C1CCN(C(=O)c2ccc3cc(Oc4ccc(C(F)(F)F)cn4)ccc3n2)C1 (centres unmarked) [Example 287, [3-(methylsulfonyl)pyrrolidin-1-yl](6-{[5-(trifluoromethyl)pyridin-2-yl]oxy}quinolin-2-yl)methanone] | 2.81
O=C(c1ccc2cc(Oc3ccc(C(F)(F)F)cn3)ccc2n1)N1CCN2C(=O)CCC2C1 (centres unmarked) [Example 288, 2-[(6-{[5-(trifluoromethyl)pyridin-2-yl]oxy}quinolin-2-yl)carbonyl]hexahydropyrrolo[1,2-a]pyrazin-6(2H)-one] | 7.88
CCOC(=O)N1CCN(C(=O)c2ccc3cc(Oc4ccc(C(F)(F)F)cn4)ccc3n2)CC1 [Example 289, ethyl 4-[(6-{[5-(trifluoromethyl)pyridin-2-yl]oxy}quinolin-2-yl)carbonyl]piperazine-1-carboxylate] | 3.91
O=C(c1ccc2cc(Oc3ccc(C(F)(F)F)cn3)ccc2n1)N1CCN(C(=O)C2CC2)CC1 [Example 290, cyclopropyl{4-[(6-{[5-(trifluoromethyl)pyridin-2-yl]oxy}quinolin-2-yl)carbonyl]piperazin-1-yl}methanone] | 9.86
O=C(c1ccc2cc(Oc3ccc(C(F)(F)F)cn3)ccc2n1)N1CCN(C2CCCCC2)CC1 [Example 291, (4-cyclohexylpiperazin-1-yl)(6-{[5-(trifluoromethyl)pyridin-2-yl]oxy}quinolin-2-yl)methanone] | 13.7
O=C(c1ccc2cc(Oc3ccc(C(F)(F)F)cn3)ccc2n1)N1CC(O)C(F)C1 (centres unmarked) [Example 292, (3-fluoro-4-hydroxypyrrolidin-1-yl)(6-{[5-(trifluoromethyl)pyridin-2-yl]oxy}quinolin-2-yl)methanone] | 3.26
CC(C)COC(=O)N1CCN(C(=O)c2ccc3cc(Oc4ccc(C(F)(F)F)cn4)ccc3n2)CC1 [Example 293, isobutyl 4-[(6-{[5-(trifluoromethyl)pyridin-2-yl]oxy}quinolin-2-yl)carbonyl]piperazine-1-carboxylate] | 3.32
CCN1CCN(C(=O)c2ccc3cc(Oc4ccc(C(F)(F)F)cn4)ccc3n2)CC1 [Example 294, (4-ethylpiperazin-1-yl)(6-{[5-(trifluoromethyl)pyridin-2-yl]oxy}quinolin-2-yl)methanone] | 1.4
O=C(c1ccc2cc(Oc3ccc(C(F)(F)F)cn3)ccc2n1)N1CCCCC1 [Example 297, piperidin-1-yl(6-{[5-(trifluoromethyl)pyridin-2-yl]oxy}quinolin-2-yl)methanone] | 7.99
O=C(c1ccc2cc(Oc3ccc(C(F)(F)F)cn3)ccc2n1)N1CCN(CC(F)F)CC1 [Example 298, [4-(2,2-difluoroethyl)piperazin-1-yl](6-{[5-(trifluoromethyl)pyridin-2-yl]oxy}quinolin-2-yl)methanone] | 12.3
O=C(c1ccc2cc(Oc3ccc(C(F)(F)F)cn3)ccc2n1)N1CCN(C(=O)N2CCOCC2)CC1 [Example 299, morpholin-4-yl{4-[(6-{[5-(trifluoromethyl)pyridin-2-yl]oxy}quinolin-2-yl)carbonyl]piperazin-1-yl}methanone] | > 20
O=C(c1ccc2cc(Oc3ccc(C(F)(F)F)cn3)ccc2n1)N1C[C@H](O)C[C@H]1CO [Example 300, [(2S,4R)-4-hydroxy-2-(hydroxymethyl)pyrrolidin-1-yl](6-{[5-(trifluoromethyl)pyridin-2-yl]oxy}quinolin-2-yl)methanone] | > 20
O=C(c1ccc2cc(Oc3ccc(C(F)(F)F)cn3)ccc2n1)N1CC[C@H](O)[C@H]1CO [Example 304, [(2R,3S)-3-hydroxy-2-(hydroxymethyl)pyrrolidin-1-yl](6-{[5-(trifluoromethyl)pyridin-2-yl]oxy}quinolin-2-yl)methanone] | > 20
O=C(c1ccc2cc(Oc3ccc(C(F)(F)F)cn3)ccc2n1)N1C[C@H](CO)C[C@H](CO)C1 [Example 307, [cis-3,5-bis(hydroxymethyl)piperidin-1-yl](6-{[5-(trifluoromethyl)pyridin-2-yl]oxy}quinolin-2-yl)methanone] | 14.6
O=C(c1ccc2cc(Oc3ccc(C(F)(F)F)cn3)ccc2n1)N1CCN(Cc2ccccn2)CC1 [Example 308, [4-(pyridin-2-ylmethyl)piperazin-1-yl](6-{[5-(trifluoromethyl)pyridin-2-yl]oxy}quinolin-2-yl)methanone] | 3.07
CC(C)(C)CC(=O)N1CCN(C(=O)c2ccc3cc(Oc4ccc(C(F)(F)F)cn4)ccc3n2)CC1 [Example 309, 3,3-dimethyl-1-{4-[(6-{[5-(trifluoromethyl)pyridin-2-yl]oxy}quinolin-2-yl)carbonyl]piperazin-1-yl}butan-1-one] | 3.57
N[C@@H]1CCN(C(=O)c2ccc3cc(Oc4ccc(C(F)(F)F)cn4)ccc3n2)C1 [Example 310, [(3R)-3-aminopyrrolidin-1-yl](6-{[5-(trifluoromethyl)pyridin-2-yl]oxy}quinolin-2-yl)methanone] | 0.665
O=C(c1ccc2cc(Oc3ccc(C(F)(F)F)cn3)ccc2n1)N1CCCC(F)(F)C1 [Example 312, (3,3-difluoropiperidin-1-yl)(6-{[5-(trifluoromethyl)pyridin-2-yl]oxy}quinolin-2-yl)methanone] | 6.93
O=C(c1ccc2cc(Oc3ccc(C(F)(F)F)cn3)ccc2n1)N1CCC[C@@]12CC[C@H](O)C2 [Example 313, [(5S,7S)-7-hydroxy-1-azaspiro[4.4]non-1-yl](6-{[5-(trifluoromethyl)pyridin-2-yl]oxy}quinolin-2-yl)methanone] | 14
O=C(c1ccc2cc(Oc3ccc(C(F)(F)F)cn3)ccc2n1)N1CCN(Cc2cocn2)CC1 [Example 315, [4-(1,3-oxazol-4-ylmethyl)piperazin-1-yl](6-{[5-(trifluoromethyl)pyridin-2-yl]oxy}quinolin-2-yl)methanone] | 6.12
NS(=O)(=O)CCNC(=O)c1ccc2cc(Oc3ccc(C(F)(F)F)cn3)ccc2n1 [Example 317, N-(2-sulfamoylethyl)-6-{[5-(trifluoromethyl)pyridin-2-yl]oxy}quinoline-2-carboxamide] | 3.01
O=C(c1ccc2cc(Oc3ccc(C(F)(F)F)cn3)ccc2n1)N1CCC(F)CC1 [Example 318, (4-fluoropiperidin-1-yl)(6-{[5-(trifluoromethyl)pyridin-2-yl]oxy}quinolin-2-yl)methanone] | 7.41
O=C(c1ccc2cc(Oc3ccc(C(F)(F)F)cn3)ccc2n1)N1CC[C@@H](N2CCCCC2)C1 [Example 319, [(3R)-3-(piperidin-1-yl)pyrrolidin-1-yl](6-{[5-(trifluoromethyl)pyridin-2-yl]oxy}quinolin-2-yl)methanone] | 0.285
O=C(c1ccc2cc(Oc3nnc(C(F)(F)F)s3)ccc2n1)N1CCNCC1 [Example 320, piperazin-1-yl(6-{[5-(trifluoromethyl)-1,3,4-thiadiazol-2-yl]oxy}quinolin-2-yl)methanone] | 17.1
CC(C)NC(=O)C1CN(C(=O)c2ccc3cc(Oc4ccc(C(F)(F)F)cn4)ccc3n2)CCN1 (centres unmarked) [Example 321, N-isopropyl-4-[(6-{[5-(trifluoromethyl)pyridin-2-yl]oxy}quinolin-2-yl)carbonyl]piperazine-2-carboxamide] | 8.07

same assay, conditions: read-out: FRET-Membrane Potential Nav1.7 IC50

SMILES | IC50 [µM]
O=C(NC1CS(=O)(=O)CC1O)c1ccc2cc(Oc3ccc(C(F)(F)F)cn3)ccc2n1 (centres unmarked) [Example 285, N-(4-hydroxy-1,1-dioxidotetrahydrothiophen-3-yl)-6-{[5-(trifluoromethyl)pyridin-2-yl]oxy}quinoline-2-carboxamide] | 0.774
O=C(c1ccc2cc(Oc3ncc(C(F)(F)F)cc3Br)ccc2n1)N1CCNCC1 [Example 295, (6-{[3-bromo-5-(trifluoromethyl)pyridin-2-yl]oxy}quinolin-2-yl)(piperazin-1-yl)methanone] | 3.2
O=C(c1ccc2cc(Oc3ccc(C(F)(F)F)cn3)ccc2n1)N1CCOCC1 [Example 296, morpholin-4-yl(6-{[5-(trifluoromethyl)pyridin-2-yl]oxy}quinolin-2-yl)methanone] | 12.4
O=C(c1ccc2cc(Oc3ccc(C(F)(F)F)cn3)ccc2n1)N1CCN(CCC(F)(F)F)CC1 [Example 311, (6-{[5-(trifluoromethyl)pyridin-2-yl]oxy}quinolin-2-yl)[4-(3,3,3-trifluoropropyl)piperazin-1-yl]methanone] | 3.11
O=C(c1ccc2cc(Oc3ccc(C(F)(F)F)cn3)ccc2n1)N1CCC(N2CCC2)C1 (centres unmarked) [Example 314, [3-(azetidin-1-yl)pyrrolidin-1-yl](6-{[5-(trifluoromethyl)pyridin-2-yl]oxy}quinolin-2-yl)methanone] | 0.218
O=C(c1ccc2cc(Oc3ccc(C(F)(F)F)cn3)ccc2n1)N1CCC(N2CCOCC2)C1 (centres unmarked) [Example 316, [3-(morpholin-4-yl)pyrrolidin-1-yl](6-{[5-(trifluoromethyl)pyridin-2-yl]oxy}quinolin-2-yl)methanone] | 12
